Data as given in patent US8420777B2, “Compounds that inhibit Hsp90 protein-protein interactions with IAP proteins” (University of Massachusetts, priority 2004, dated 2013).
Blank lines part the entries; values can stand above or below the compound they belong to. Ends that are not written are not given here. Peptide text beside a SMILES is read from it. * marks the point of attachment. Cbz = O=C(OCc1ccccc1)*; CH2F = FC*

Assays:
HeLa cells [1] = experiment: Apoptosis by hypodiploid DNA content, propidium iodide flow cytometry; type: cell-based, Human; conditions: 24 hours
Protocol: For determination of apoptosis by hypodiploid DNA content, various tumor cell lines were incubated with increasing concentrations of the cell permeable control scrambled (SEQ ID NO:25) or Survivin peptide (SEQ ID NO:19), harvested after 24 hours (floaters plus attached cells) fixed in 70% ethanol, and stained with 10 μg/ml propidium iodide plus 100 μg/ml RNAse A and 0.05% Triton™ X-100 in PBS, pH 7.4. Cultures were analyzed for DNA content by flow cytometry. For colorimetric quantification of cell viability, an MTT assay was used. Various tumor cell lines were incubated with increasing concentrations of the cell permeable retro-inverso control scrambled P4 or the Survivin-specific P3 peptide, incubated for 24 hours at 37° C. washed twice with Bruffs Media, and 4,5-dimethylthiazol-2-yl)-2,5-diphenyltetrazolium bromide (MTT) (Sigma, St. Louis, Mo.) was added at 5 mg/ml. Decrease in cell viability was analyzed for loss of colorimetric absorption at OD405.
HeLa cells were incubated with the indicated increasing concentrations of the cell permeable Control (scrambled) or Survivin peptide, harvested after 24 hours at 37° C., and analyzed by hypodiploid DNA content by propidium iodide staining and flow cytometry.
HeLa cells were incubated with chemotherapeutic drugs Taxol™ (10 μM) or adriamycin (300 nM), or cell permeable control peptide or the Survivin peptide, harvested after 24 hours, and analyzed for induction of apoptosis by hypodiploid DNA content by flow cytometry.

HeLa cells [2] = experiment: Proteasome or caspase inhibitor effect on GA-mediated Survivin/XIAP degradation, Western blotting; type: cell-based, Human; conditions: for reversal of loss of XIAP expression caused by GA: HeLa cell extracts, GA with inhibitor
Protocol: Extracts from HeLa cells treated with 1 μM GA for 30 hours in the presence or absence of 5 μM of the proteasome inhibitor lactacystin were analyzed for changes in Survivin or β-actin levels by Western blotting. Antibodies to actin were obtained from Sigma. […] Levels of β-actin were unaffected by treatment in this experiment.
HeLa cell extracts were collected after exposure to the indicated concentrations of GA in the absence (None) or in the presence of the proteasome inhibitor, lactacystin or the broad spectrum caspase inhibitor, ZVAD-fink. Loss of XIAP expression in the presence of Hsp90 inhibition by GA is reversed by lactacystin but not ZVAD-fink, as indicated by Western blotting for XIAP depicted in FIG. 5C (* indicates non-specific band).

[3] = tested on: HL-60 and THP-1 AML cell lines; experiment: MTT cell viability, short versus full length peptide; type: cell-based; conditions: 4×10^5 cells
Protocol: FIGS. 29B-29D are graphs depicting killing of AML cells by Survivin peptides. FIG. 29B depicts survivin peptide activity in HL-60 cells, measured by Trypan blue exclusion. FIGS. 29C and 29D depict killing, as measured using MTT, of HL-60 (FIG. 29C) or THP-1 (FIG. 29D) cells by full length Survivin peptide (SEQ ID NO:19), Survivin peptide K79-G83 (SEQ ID NO:20), or scrambled peptide (SEQ ID NO:25 and SEQ ID NO:28).
The activity of a shorter Survivin peptide was also tested in an AML cell line. A shorter cell permeable Survivin peptide was synthesized by fusing the third α-helix of the Antennapedia carrier sequence to the amino-terminus of the Survivin peptide sequence K79-G83 (SEQ ID NO:20). […] The scrambled control peptide ([…]; SEQ ID NO:28) was ineffective (FIGS. 29C, D). For these experiments a higher number of cells was used (4×10^5) to produce a 50% killing efficiency by full length survivin peptide.

[4] = tested on: U937, K562, HL60, THP1 AML cell lines; experiment: MTT cell viability in AML cell lines; type: cell-based, human
Protocol: FIG. 30 is a graph depicting killing activity of survivin K79-G83 in AML cells. The indicated human AML cell lines (U937, K562, HL60, and THP1) were incubated with scrambled (SEQ ID NO:28) or Survivin (SEQ ID NO:20) peptides and evaluated for cell viability by MTT.
The effect of the K79-G83 Survivin peptide was characterized in more detail for anti-tumor activity in AML. The K79-L87 (SEQ ID NO:19) and K79-G83 peptides (SEQ ID NO:20) were incubated with AML cells, and cell viability was measured using MTT.

Hsp90 = molecular target: T1, Hsp90 (Homo sapiens, UniProt P07900); experiment: Surface plasmon resonance of immobilized biotin peptides with r-Hsp90; type: binding
T1 construct: GST-Hsp90 (amino acids 1-732); GST (N); made in house; host or cells: E. coli
Protocol: Wild type Survivin peptide 77 to 91 (SEQ ID NO:22) or the corresponding C84A mutant 77-91 peptide (HKKHSSGAAFLSVKK; SEQ ID NO:23) was synthesized with an N-terminal biotin and immobilized on streptavidin coated chips (SA5) purchased from Biacore Inc. (Piscataway, N.J.). Increasing concentrations (100 nM-10 μM) of purified r-Hsp90 suspended in 10 mM HEPES, 150 mM NaCl, 3 mM EDTA, 0.005% polysorbate-20, 1 mM DTT, were then injected in […] over the immobilized peptides. A constant flow rate of […] was maintained, and the dissociation phase was followed for 300 seconds. Surfaces were regenerated using […] of 1 M NaCl/50 mM NaOH after each dissociation phase. A new injection cycle was initiated only after 10 min post-regeneration to ensure complete removal of NaCl and NaOH. The collected data were analyzed using the Biaeval 3.0 software package from Biacore Inc.
Sensorgrams (FIG. 10B) indicate binding of the Survivin peptides to Hsp90, measured by an increase in surface plasmon resonance during analyte flow over the chip surface, with the nonspecific signal from the biotin-only surface subtracted.

[5] = molecular target: T2, Hsp90-Survivin binding interactions (Homo sapiens, UniProt P07900, S63T); experiment: ELISA: Survivin peptides inhibiting Hsp90 binding to immobilized Survivin; conditions: 20 μg/ml peptide preincubated with Hsp90, 16 hours, 4° C.
T2 construct: GST-Hsp90 (amino acids 1-732); GST (N); made in house; host or cells: E. coli
Protocol: ELISA experiments were performed by immobilizing recombinant Survivin (r-Survivin) ([…]) or recombinant Hsp90 (r-Hsp90) (10 μg/ml) on plastic microtiter wells (Immulon™-2, Dynatech Laboratories, Chantilly, Va.) using bicarbonate buffer, pH 9.5 (100 μl/well) for 18 hours at 4° C. Bound protein was blocked with 3% gelatin for 1 hour at 37° C., rinsed with washing buffer (TBS pH 7.4, 0.1% Tween™, 0.1% BSA) and incubated for 1 hour at 37° C. with different concentrations of a test protein to determine if the test protein bound the immobilized protein.
ELISA experiments were performed essentially as in Example 2 with the following variations. 20 μg/ml of each recombinant Survivin peptide (expressed in E. coli) was preincubated with Hsp90 at 2.5 mg/ml for 16 hours at 4° C. After binding and blocking of full length Survivin to wells in a microtiter plate, the preincubated mixtures of Hsp90 and Survivin peptides were added to the wells and incubated for 1 hour at 37° C. Wells were washed, incubated with primary antibody, washed again, and bound antibody was quantified as described above. Each experiment was repeated three times and the standard deviation is shown.

[6] = tested on: HFF, HGF, WS-1 normal cells; experiment: MTT colorimetric viability assay, normal cell types; type: cell-based, human; conditions: 24 hours
Protocol: (§1) FIGS. 22A and 22B compares the effect of P31 (SEQ ID NO:19) or P33 (SEQ ID NO:25) on apoptosis of tumor cell lines (FIG. 22A) and normal cell lines (FIG. 22B). The following tumor cell lines DU145 (prostate cancer, circles), PC3 (prostate cancer, triangles), or HeLa (cervical carcinoma, squares) were treated with the indicated increasing concentrations of P31 peptide (solid symbols) or control P33 peptide (open symbols), harvested after 24 hours, and analyzed for cell viability using an MTT colorimetric assay. For normal cell types (right panel), HFF (human foreskin fibroblasts, squares), HGF (human fibroblasts, triangles) or WS-1 (human epithelial cells, circles) were treated with P31 (solid symbols) or control scrambled peptide P33, harvested after 24 hours and analyzed for overall cell viability by MTT colorimetric assay. All cell lines were from ATCC.

HL-60 cells = experiment: Cell killing by trypan blue exclusion; type: cell-based
Protocol: The expression and function of the survivin-Hsp90 pathway in acute myelogenous leukemia (AML) cell lines was analyzed. Survivin was abundantly expressed in four AML cell lines, U937, K-562, THP-1 and HL-60, by Western blotting (FIG. 29A).

[7] = tested on: DU145, PC3, HeLa tumor cell lines; experiment: MTT colorimetric viability assay, tumor cell lines; type: cell-based; conditions: increasing concentrations, 24 hours
Protocol: as §1

PC3 cells = experiment: Immunoblotting of Hsp90 client proteins; type: cell-based; conditions: 75 and 150 μM, 8 hours
Protocol: Survivin affects the stability and function of Hsp90 client proteins in tumor cells. PC3 cells were untreated or exposed to 75 and 150 μM concentrations of the survivin peptide (SEQ ID NO:19) (or control scrambled peptide; SEQ ID NO:25) for 8 hours and processed for immunoblotting against the Hsp90 client proteins survivin, AKT, and CDK-6. […] Conversely, the levels of Hsp90, Hsp70, and PCNA were not affected (FIG. 26A).

HeLa cells [8] = experiment: Annexin V labeling and propidium iodide multiparametric flow cytometry; type: cell-based, Human; conditions: increasing concentrations, eight hour incubation, 37° C.
Protocol: HeLa cell cultures were treated with the indicated increasing concentrations of P31 (Survivin) or P33 (Control; SEQ ID NO:25) peptides, harvested after an eight hour incubation at 37° C., and analyzed for multiparametric flow cytometry of Annexin V labeling (X-axis, a marker of apoptosis) and propidium iodide staining (Y-axis, a marker of cell death).

HeLa cells [9] = experiment: Stability of Hsp90 client proteins and caspase-3 proform, Western blot; type: cell-based, Human; conditions: increasing concentrations, 24 hours
Protocol: To determine whether intracellular loading of the Survivin cell permeable peptide reproduced the effect of mAb 8E2 that disrupts the Survivin-Hsp90 interaction in destabilizing Survivin levels in vivo (FIG. 8), HeLa cells were loaded with the indicated increasing concentrations of cell permeable control (SEQ ID NO:25) or Survivin (SEQ ID NO:19) cell permeable peptide, harvested after 24 hours, and analyzed for stability of Hsp90 client proteins, Survivin and Akt. Polyclonal antibody to Akt was obtained from Cell Signaling Technology (Cat. No. 9272).

survivin-Hsp90 = molecular target: T3, survivin-Hsp90 (Homo sapiens, UniProt P07900, S63T); experiment: ELISA inhibition of recombinant survivin binding to Hsp90
T3 construct: GST-Hsp90 (amino acids 1-732); GST (N); made in house; host or cells: E. coli
Description: (§2) FIG. 31 is a graph depicting Hsp90 binding by Survivin peptides, measured by ELISA. Data are the mean±S.D. of two independent experiments.

recombinant Hsp90 = molecular target: T4, recombinant Hsp90 (Homo sapiens, UniProt P07900, S63T); experiment: ELISA binding to recombinant Hsp90
T4 construct: GST-Hsp90 (amino acids 1-732); GST (N); made in house; host or cells: E. coli
Description: as §2

Compound: COc1cccc2c1C(=O)c1c(O)c3c(c(O)c1C2=O)C[C@@](O)(C(=O)CO)C[C@@H]3O[C@H]1C[C@H](N)[C@H](O)[C@H](C)O1 [adriamycin]
- loss of cell viability by hypodiploid DNA content (HeLa cells [1]; 300 nM): does not result in significant loss of cell viability

Compound: CC(=O)N[C@@H](CSC(=O)[C@]1([C@@H](O)C(C)C)NC(=O)[C@H](C)[C@@H]1O)C(=O)O [lactacystin]
- Survivin levels following lactacystin and GA treatment (HeLa cells [2]; 1 μM GA for 30 hours, 5 μM lactacystin): at or above the levels of untreated cells
- reversal of loss of XIAP expression caused by GA (HeLa cells [2]): reversed

Compound: RQIKIWFQNRRMKWKKSGKHS (Synthetically generated peptide) [SEQ ID NO:28, scrambled control peptide for K79-G83, reference compound]
- reduction of cell viability (MTT) [3]: ineffective
- cell viability (MTT), killing of AML cell lines [4]: no effect

- on-rates, wild type versus C84A peptide (Hsp90): similar
Compound: HKKHSSGAAFLSVKK (Synthetically generated peptide) [SEQ ID NO:23, C84A mutant 77-91 peptide]

Compound: KHSSGCAFLSVK [SEQ ID NO:3]
- inhibition of Hsp90-Survivin binding interactions [5]: especially effective inhibitor

Compound: COC(=O)C[C@H](NC(=O)[C@H](C)NC(=O)[C@@H](NC(=O)OCc1ccccc1)C(C)C)C(=O)CF [ZVAD-fink, Z-Val-Ala-Asp (OMe)-CH2F] (Cbz-Val-Ala-Asp(OMe)-CH2F)
- reversal of loss of XIAP expression caused by GA (HeLa cells [2]): not

Compound: RQIKIWFQNRRMKWKKSKLACFSHG (Synthetically generated peptide) [P33, reference compound]
- cell death in normal cell types (MTT) [6]: did not induce cell death in cancer or normal cell types
- cell killing (trypan blue exclusion) (HL-60 cells): ineffective
- cell death in cancer cell lines (MTT) [7]: did not induce cell death in cancer or normal cell types
- Hsp90 client proteins (survivin, Akt, CDK-4, CDK-6) (PC3 cells): not
- cell population with hypodiploid DNA content (apoptotic) (HeLa cells [1]; peptides, comparison with chemotherapeutic drugs): not
- induction of apoptosis (Annexin V / propidium iodide) (HeLa cells [8]): ineffective
- levels of Survivin and Akt (HeLa cells [9]): ineffective
- cell viability (MTT), killing of AML cell lines [4]: no effect

- binding to recombinant Hsp90 in vitro (recombinant Hsp90): comparably bound recombinant Hsp90
Compound: RQIKIWFQNRRMKWKKKHSSG (Synthetically generated peptide) [SEQ ID NO:20]
- reduction of cell viability (MTT) [3]: considerably more active than the P31 peptide
- inhibition of binding of recombinant survivin to Hsp90 (survivin-Hsp90): inhibited the binding of recombinant survivin to Hsp90 in a dose-dependent manner
- cell viability (MTT), killing of AML cell lines [4]: efficiently killed all AML cell lines tested

Compound: CC(=O)O[C@H]1C(=O)[C@@]2(C)[C@H]([C@H](OC(=O)c3ccccc3)[C@]3(O)C[C@H](OC(=O)[C@H](O)[C@@H](NC(=O)c4ccccc4)c4ccccc4)C(C)=C1C3(C)C)[C@]1(OC(C)=O)CO[C@@H]1C[C@@H]2O [Taxol, paclitaxel]
- loss of cell viability by hypodiploid DNA content (HeLa cells [1]; 10 μM): does not result in significant loss of cell viability
